Laboratory results: PubChem BioAssay AID328 (DTP/NCI, 2004)
Values joined by “and” are separate entries in the source; they are usually repeats but may differ in a detail not shown here. Identical values can stand only once. Toxic doses and inconclusive results are not listed.

System: BDF1 mice, P388 leukemia ip, median survival T/C
Assay: NCI In Vivo Anticancer Drug Screen. Data for tumor model P388 Leukemia (intraperitoneal) in B6D2F1 (BDF1) mice
Details: endpoint: median survival time, higher = longer survival
Summary of the method: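 Reported as T/C, where T is the survival measurement in dosed animals and C the same measurement in vehicle controls.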

[1] = dose: 25.0 mg/kg/injection, schedule: Q04DX003 (ip), vehicle: saline
[2] = dose: 50.0 mg/kg/injection, schedule: Q04DX003 (ip), vehicle: saline
[3] = dose: 100.0 mg/kg/injection, schedule: Q04DX003 (ip), vehicle: saline
[4] = dose: 50.0 mg/kg/injection, schedule: Q01DX009 (ip), vehicle: saline with Tween-80
[5] = dose: 100.0 mg/kg/injection, schedule: Q01DX009 (ip), vehicle: saline with Tween-80
[6] = dose: 200.0 mg/kg/injection, schedule: Q01DX009 (ip), vehicle: saline with Tween-80
[7] = dose: 400.0 mg/kg/injection, schedule: Q01DX009 (ip), vehicle: saline with Tween-80
[8] = dose: 12.5 mg/kg/injection, schedule: Q01DX009 (ip), vehicle: saline
[9] = dose: 25.0 mg/kg/injection, schedule: Q01DX009 (ip), vehicle: saline

Question: With `Nc1ncnc2c1ncn2C1OC(CO)C(O)C1O` (centres undefined) as the molecule, how does the T/C (dose: 1.56 mg/kg/injection, schedule: Q#A X018 (ip), vehicle: saline with Tween-80) read?
Answer: 113 % of control

Question: And the T/C (dose: 3.13 mg/kg/injection, schedule: Q#A X018 (ip), vehicle: saline with Tween-80)?
Answer: 100 % of control

Question: And the T/C (dose: 6.25 mg/kg/injection, schedule: Q#A X018 (ip), vehicle: saline with Tween-80)?
Answer: 100 % of control

Question: What about the T/C (dose: 10.0 mg/kg/injection, schedule: Q01DX009 (ip), vehicle: saline with Tween-80) of the same molecule?
Answer: 105 % of control

Question: And the T/C (dose: 12.5 mg/kg/injection, schedule: Q#A X018 (ip), vehicle: saline with Tween-80)?
Answer: 109 % of control

Question: And the T/C (dose: 14.0 mg/kg/injection, schedule: Q01DX009 (ip), vehicle: saline)?
Answer: 120 % of control

Question: What about the T/C (dose: 20.0 mg/kg/injection, schedule: Q01DX009 (ip), vehicle: saline with Tween-80) of the same molecule?
Answer: 91 % of control and 100 % of control

Question: And the T/C [1]?
Answer: 109 % of control

Question: What about the T/C (dose: 40.0 mg/kg/injection, schedule: Q01DX009 (ip), vehicle: saline with Tween-80) of the same molecule?
Answer: 114 % of control and 122 % of control

Question: And the T/C [2]?
Answer: 113 % of control

Question: And the T/C (dose: 78.0 mg/kg/injection, schedule: Q01DX009 (ip), vehicle: saline with Tween-80)?
Answer: 178 % of control

Question: What about the T/C (dose: 78.6 mg/kg/injection, schedule: Q01DX005 (ip), vehicle: water) of the same molecule?
Answer: 108 % of control

Question: What about the T/C (dose: 78.6 mg/kg/injection, schedule: Q01DX009 (ip), vehicle: water) of the same molecule?
Answer: 102 % of control

Question: What about the T/C [3] of the same molecule?
Answer: 109 % of control

Question: What about the T/C (dose: 110.0 mg/kg/injection, schedule: Q03HX024 (ip), vehicle: saline with Tween-80) of the same molecule?
Answer: 184 % of control

Question: And the T/C (dose: 118.0 mg/kg/injection, schedule: Q01DX005 (ip), vehicle: water)?
Answer: 114 % of control

Question: And the T/C (dose: 118.0 mg/kg/injection, schedule: Q01DX009 (ip), vehicle: saline with Tween-80)?
Answer: 165 % of control

Question: And the T/C (dose: 118.0 mg/kg/injection, schedule: Q01DX009 (ip), vehicle: water)?
Answer: 105 % of control

Question: And the T/C (dose: 160.0 mg/kg/injection, schedule: Q01DX009 (ip), vehicle: saline with Tween-80)?
Answer: 151 % of control and 185 % of control

Question: What about the T/C (dose: 160.0 mg/kg/injection, schedule: Q03HX024 (ip), vehicle: saline with Tween-80) of the same molecule?
Answer: 206 % of control

Question: And the T/C (dose: 177.0 mg/kg/injection, schedule: Q01DX005 (ip), vehicle: water)?
Answer: 111 % of control

Question: And the T/C (dose: 177.0 mg/kg/injection, schedule: Q01DX009 (ip), vehicle: saline with Tween-80)?
Answer: 156 % of control and 169 % of control

Question: What about the T/C (dose: 177.0 mg/kg/injection, schedule: Q01DX009 (ip), vehicle: water) of the same molecule?
Answer: 112 % of control

Question: And the T/C (dose: 240.0 mg/kg/injection, schedule: Q03HX024 (ip), vehicle: saline with Tween-80)?
Answer: 228 % of control

Question: What about the T/C (dose: 266.0 mg/kg/injection, schedule: Q01DX005 (ip), vehicle: water) of the same molecule?
Answer: 117 % of control

Question: What about the T/C (dose: 266.0 mg/kg/injection, schedule: Q01DX009 (ip), vehicle: saline with Tween-80) of the same molecule?
Answer: 156 % of control and 166 % of control

Question: What about the T/C (dose: 266.0 mg/kg/injection, schedule: Q01DX009 (ip), vehicle: water) of the same molecule?
Answer: 117 % of control

Question: And the T/C (dose: 320.0 mg/kg/injection, schedule: Q01DX009 (ip), vehicle: saline with Tween-80)?
Answer: 185 % of control

Question: And the T/C (dose: 400.0 mg/kg/injection, schedule: Q01DX005 (ip), vehicle: water)?
Answer: 117 % of control

Question: And the T/C (dose: 400.0 mg/kg/injection, schedule: Q01DX009 (ip), vehicle: water)?
Answer: 114 % of control

Question: And the T/C (dose: 900.0 mg/kg/injection, schedule: Q01DX009 (ip), vehicle: saline with Tween-80)?
Answer: 155 % of control and 156 % of control

Question: What does the source list for `C=C1[C@@H](C)[C@H]2[C@H](Cc3ccccc3)NC(=O)[C@]23OC(=O)/C=C/[C@H](O)CCC[C@@H](C)C/C=C/[C@H]3[C@@H]1O`?
Answer: T/C (dose: 0.25 mg/kg/injection, schedule: Q01DX005 (ip), vehicle: saline with Tween-80): 86 % of control; T/C (dose: 0.5 mg/kg/injection, schedule: Q01DX005 (ip), vehicle: saline with Tween-80): 100 % of control; T/C (dose: 1.0 mg/kg/injection, schedule: Q01DX005 (ip), vehicle: saline with Tween-80): 100 % of control; T/C (dose: 1.0 mg/kg/injection, schedule: Q04DX002 (ip), vehicle: saline): 109 % of control; T/C (dose: 2.0 mg/kg/injection, schedule: Q01DX005 (ip), vehicle: saline with Tween-80): 107 % of control; T/C (dose: 2.0 mg/kg/injection, schedule: Q04DX002 (ip), vehicle: saline): 109 % of control; T/C (dose: 4.0 mg/kg/injection, schedule: Q01DX005 (ip), vehicle: saline with Tween-80): 115 % of control; T/C (dose: 8.0 mg/kg/injection, schedule: Q01DX005 (ip), vehicle: saline with Tween-80): 117 % of control; T/C (dose: 8.0 mg/kg/injection, schedule: Q04DX002 (ip), vehicle: saline): 109 % of control; T/C (dose: 16.0 mg/kg/injection, schedule: Q04DX002 (ip), vehicle: saline): 109 % of control; T/C (dose: 32.0 mg/kg/injection, schedule: Q04DX002 (ip), vehicle: saline): 100 % of control

Question: Which T/C (dose: 5.0 mg/kg/injection, schedule: Q01DX010 (ip), vehicle: carboxymethylcellulose (CMC)) does the source give for `COc1ccc2c3c1OC1CC(O)C=CC31CCN(C)C2` (centres undefined) here?
Answer: 100 % of control

Question: For `Cn1cnc2c1c(=O)[nH]c(=O)n2C`, which T/C (dose: 100.0 mg/kg/injection, schedule: Q01DX009 (ip), vehicle: Klucel (hydroxypropylcellulose) (HPC)) is on record?
Answer: 109 % of control

Question: What about the T/C (dose: 200.0 mg/kg/injection, schedule: Q01DX009 (ip), vehicle: Klucel (hydroxypropylcellulose) (HPC)) of the same molecule?
Answer: 104 % of control

Question: And the T/C (dose: 400.0 mg/kg/injection, schedule: Q01DX009 (ip), vehicle: Klucel (hydroxypropylcellulose) (HPC))?
Answer: 97 % of control

Question: Which results are given for `Cc1ccc(S(=O)(=O)NC(=O)Oc2nc3cc(Cl)ccc3o2)cc1`?
Answer: T/C [4]: 99 % of control; T/C [5]: 114 % of control; T/C [6]: 96 % of control

Question: What does the source list for `CN(C)c1ccc(C=O)c(Br)c1`?
Answer: T/C (dose: 12.5 mg/kg/injection, schedule: Q01DX009 (ip), vehicle: Klucel (hydroxypropylcellulose) (HPC)): 109 % of control; T/C (dose: 25.0 mg/kg/injection, schedule: Q01DX009 (ip), vehicle: Klucel (hydroxypropylcellulose) (HPC)): 90 % of control; T/C (dose: 50.0 mg/kg/injection, schedule: Q01DX009 (ip), vehicle: Klucel (hydroxypropylcellulose) (HPC)): 86 % of control; T/C (dose: 100.0 mg/kg/injection, schedule: Q04DX003 (ip), vehicle: Klucel (hydroxypropylcellulose) (HPC)): 90 % of control; T/C (dose: 400.0 mg/kg/injection, schedule: Q04DX003 (ip), vehicle: Klucel (hydroxypropylcellulose) (HPC)): 104 % of control

Question: Which results are given for `NC(=O)CC(NC(=O)OCc1ccccc1)c1nn[nH]n1` (centres undefined)?
Answer: T/C [5]: 90 % of control; T/C [6]: 100 % of control; T/C [7]: 95 % of control

Question: How did the T/C (dose: 6.25 mg/kg/injection, schedule: Q01DX009 (ip), vehicle: saline) turn out when `c1ccc2c(c1)Sc1ccccc1N2CCCN1CCCC1` was run?
Answer: 104 % of control

Question: What about the T/C [8] of the same molecule?
Answer: 104 % of control

Question: And the T/C [9]?
Answer: 122 % of control

Question: How did the T/C (dose: 2.6 mg/kg/injection, schedule: Q04DX003 (ip), vehicle: saline with Tween-80) turn out when `COc1ccc(-c2csc(-c3ccccc3)n2)cc1N=Cc1ccc(N(CCCl)CCCl)c(OC)c1` was run?
Answer: 118 % of control

Question: And the T/C (dose: 4.0 mg/kg/injection, schedule: Q04DX003 (ip), vehicle: saline with Tween-80)?
Answer: 122 % of control

Question: What about the T/C (dose: 6.0 mg/kg/injection, schedule: Q04DX003 (ip), vehicle: saline with Tween-80) of the same molecule?
Answer: 90 % of control

Question: What about the T/C (dose: 13.0 mg/kg/injection, schedule: Q04DX003 (ip), vehicle: saline with Tween-80) of the same molecule?
Answer: 190 % of control

Question: And the T/C (dose: 17.0 mg/kg/injection, schedule: Q01DX009 (ip), vehicle: saline with Tween-80)?
Answer: 240 % of control

Question: What about the T/C (dose: 20.0 mg/kg/injection, schedule: Q04DX003 (ip), vehicle: saline with Tween-80) of the same molecule?
Answer: 204 % of control

Question: What about the T/C (dose: 25.0 mg/kg/injection, schedule: Q01DX009 (ip), vehicle: saline with Tween-80) of the same molecule?
Answer: 240 % of control

Question: And the T/C (dose: 30.0 mg/kg/injection, schedule: Q04DX003 (ip), vehicle: saline with Tween-80)?
Answer: 271 % of control

Question: What about the T/C (dose: 37.0 mg/kg/injection, schedule: Q01DX009 (ip), vehicle: saline with Tween-80) of the same molecule?
Answer: 184 % of control

Question: What about the T/C (dose: 44.0 mg/kg/injection, schedule: Q04DX003 (ip), vehicle: saline with Tween-80) of the same molecule?
Answer: 242 % of control and 300 % of control

Question: What about the T/C (dose: 67.0 mg/kg/injection, schedule: Q04DX003 (ip), vehicle: saline with Tween-80) of the same molecule?
Answer: 272 % of control and 300 % of control

Question: What about the T/C [5] of the same molecule?
Answer: 87 % of control

Question: What does the source list for `CC(=O)N1CCc2cc(N)ccc21`?
Answer: T/C [2]: 95 % of control; T/C [3]: 95 % of control; T/C (dose: 200.0 mg/kg/injection, schedule: Q04DX003 (ip), vehicle: saline): 91 % of control

Question: Which T/C [8] does the source give for `CC(CNCCN)C[Si](C)(C)C` (centres undefined) here?
Answer: 95 % of control

Question: What about the T/C (dose: 12.5 mg/kg/injection, schedule: Q04DX003 (ip), vehicle: saline) of the same molecule?
Answer: 88 % of control

Question: What about the T/C [9] of the same molecule?
Answer: 100 % of control

Question: And the T/C [1]?
Answer: 100 % of control

Question: And the T/C (dose: 50.0 mg/kg/injection, schedule: Q01DX009 (ip), vehicle: saline)?
Answer: 90 % of control

Question: What about the T/C [2] of the same molecule?
Answer: 94 % of control

Question: How did the T/C [5] turn out when `Nc1cc(N)c([N+](=O)[O-])cc1[N+](=O)[O-]` was run?
Answer: 90 % of control

Question: What about the T/C [6] of the same molecule?
Answer: 100 % of control

Question: What about the T/C [7] of the same molecule?
Answer: 104 % of control

Question: With `O=C(/C=C/c1ccc(Cl)cc1)c1ccc(Cl)cc1` as the molecule, how does the T/C [5] read?
Answer: 100 % of control

Question: What about the T/C [6] of the same molecule?
Answer: 90 % of control

Question: And the T/C [7]?
Answer: 90 % of control

Question: `c1ccc2c(c1)cc1c3nncn3ncn21` was tested. Which T/C [4] did it give?
Answer: 90 % of control

Question: What about the T/C [5] of the same molecule?
Answer: 114 % of control
